Patent publication US20260048051A1, “TREATMENT OF INFLAMMATORY BOWEL DISEASE” (Atomwise Inc., priority 2024, published 2026)
Where two headings read alike, the source gives them in different places.

Columns and labels:
IFNα/pSTAT5 = assay: Whole blood potency (IFNα/pSTAT5), human; type: cell-based; conditions: CD4+ T cells, read-out: Cellular Whole Blood Potency IC50 (IFNα/pSTAT5), Human
Procedure: Heparinized human whole blood (5 different donors) was acquired from the Stanford Blood Center and used fresh for each experiment. Whole blood was plated (90 μl per well) into a 96-well assay plate immediately prior to initiation of the assay.
Test compounds were diluted serially (3-fold) in DMSO to generate a series of 10 concentrations (at 200× final assay concentrations). […] DMSO dilutions were diluted 10-fold in PBS to generate 20× final assay concentrations.
Pre-incubation of compounds and whole blood was initiated by adding 5 μl of the compound dilutions to the assay plates and incubated for 30 min at 37° C. Blood was then stimulated by the addition of IFN-α (5 μl of 200 ng/ml) (Miltenyi #130-093-873) followed by incubation at 37° C. for 15 min. Assays were terminated by the addition of Lyse/Fix (BD Biosciences #558049) (60 μl treated blood+1 ml Lyse/Fix) and incubated for 10 min. Cells were diluted 1:1 with Wash Buffer (PBS+0.3% BSA) and centrifuged to pellet white blood cells. Fixed cells were washed once with Wash Buffer and the pelleted cell plate was frozen at −80° C.
Cells were thawed and washed once with Wash Buffer prior to the addition of the α-CD3-Blue520 antibody (2 μg/ml final concentration; Biolegend #300481) and incubated for 30 min. Cells were washed twice in Wash Buffer followed by permeabilization in 100% cold methanol for 15 min. Cells were washed three times in Wash Buffer prior to the addition of the α-CD4-APC antibody ([…] final concentration; Biolegend #300514) and the α-pSTAT5-PE antibody (0.67 μg/ml final concentration; Biolegend #936904) and incubated for 90 min. Cells were washed twice in Wash Buffer and resuspended in 90 μl Wash Buffer prior to running on a LSRII flow cytometer (BD Biosciences, San Jose, CA). Total T cells (CD3+) and CD4+ cells were gated, and the Mean Fluorescence Intensity (MFI) was determined from the PE channel to quantify pSTAT5 signal.
The pSTAT5 MFI in the CD4+ gate was used to calculated Activity (% Control):
Data were then analyzed by non-linear regression to determine inhibitory potencies […] using the following equation in Collaborative Drug Discovery (Burlingame, CA): […]
where X: log concentration in Molar; Y: Activity (% Control); Top: curve top plateau; Bottom: curve bottom plateau, fixed range from −20-20%; Hill Slope: unconstrained. Potency data are reported as pIC50 or pIC90 values ±SD. IC90 values are defined from the fitted IC50 values: […]. FIG. 5A.
Exemplary compounds of the invention, compounds 1 and 2 were compared in this assay.

[1] = test system: anti-CD40-induced inflammatory bowel disease (IBD); assay: Anti-CD40-induced mouse model of inflammatory bowel disease (IBD); type: in vivo, RAGN12 mice; conditions: for colon histopathology scores / colon weight-to-length ratio: 7-day anti-CD40 IBD model
Procedure: This study was conducted in accordance with the Inotiv Boulder test facility standard operating procedures (SOPs), the World Health Organization Quality Practices in Basic Biomedical Research guidelines, and in compliance with all state and federal regulations, including USDA Animal Welfare Act 9 CFR Parts 1-3. Federal Register 39129, Jul. 22, 1993. This study was conducted in accordance with The Guide for the Care & Use of Laboratory Animals (8th Edition) and therefore in accordance with all Inotiv Boulder IACUC approved policies.
Prior to the start of the study, 6-7 week old, RAGN12 mice (Taconics) were acclimated for approximately 4 days. On study day −1, mice were weighed and randomized into treatment groups based on body weight. On study day 0, 200 μg of anti-CD40 monoclonal antibody (BioXcell) was administered intraperitoneally to induce disease. Test articles were dosed orally BID (the exception was the known TYK2 inhibitor at 3 mpk, which was dosed QD, with vehicle administered as the second daily dose). Bodyweight was measured daily on study days 1-6.
On day 7, the study was terminated; mice were anesthetized with Isoflurane and bled to exsanguination followed by cervical dislocation. The entire colon was removed, measured, and weighed. The plasma (for PK) and colon (for histology and cytokine measurements) samples were collected. Histopathology samples were evaluated for edema, inflammation (extent of macrophage, lymphocyte and polymorphonuclear (PMN) cell infiltration), gland loss, erosion, and hyperplasia.
Overall efficacy of test articles is based on a ratio of colon weight to length, and colon histopathology (FIGS. 6A and 6B). Additional readouts of the model support activity of an exemplary compound in IBD (FIG. 6C-6I).

[2] = Log D (octanol / phosphate buffer pH 7.4); type: physicochemical; conditions: for logD at 1 h: octanol/potassium phosphate buffer, pH 7.4, octanol / potassium phosphate buffer pH 7.4
Procedure: 10 μL of 10 mM stock solutions was placed into a 96-well plate, and 300 μL of octanol was subsequently added. The plate was sealed and agitated on a plate shaker for 5 minutes, followed by centrifugation at 2000 rpm for 5 minutes. The seal was removed and 600 μL of potassium phosphate buffer (pH 7.4) was added. The plate was sealed and the two phases were mixed by shaking vigorously on a plate shaker for 1 hour at 25° C. The plate was then centrifuged for 2000 rpm for 5 minutes and the seal was removed. 10 μL of water was aspirated out of the water phase samples from the water phase plate and mixed with 10 μL of water (1:2 dilution). 180 μL of 50% Ethanol was added into the water phase sample plate (1:10 dilution) to achieve a 1:20 dilution. 50 μL of water phase samples were then mixed with 100 μL of 50% Ethanol (containing IS) into the water phase sample plate to achieve a 1:60 dilution. 10 μL from the octanol phase (the upper phase) was transferred into a new 96-well plate and 190 μL of 50% Ethanol was added (1:20 dilution). 10 μL of the 1:20 diluted octanol samples was transferred into a new 96 deep-well plate and 390 μL of 50% Ethanol (1:40 dilution) was added to achieve a 1:800 dilution. 50 μL of the 1:800 diluted octanol samples were transferred into a new 96-well plate and 100 μL of 50% Ethanol with IS was added to achieve a 1:2400 dilution. The samples were subsequently analyzed with LCMS.

SMILES | IC50 (IFNα/pSTAT5) | IC50 (IFNα/pSTAT5; Homo sapiens, CD4+ T) | colon histopathology scores [1] | colon weight-to-length ratio [1] | colon weight:length, efficacious dose ([1]; anti-CD40 IBD model) | LogD ([2]; octanol / potassium phosphate buffer pH 7.4) | logD at 1 h [2]
C[C@@H](c1ccc(Nc2cc(Nc3ncccc3S(C)(=O)=O)ncn2)nc1)N1CC2(COC2)C1 [Compound 1, (S)—N^4-(5-(1-(2-oxa-6-azaspiro[3.3]heptan-6-yl)ethyl)pyridin-2-yl)-N^6-(3-(methylsulfonyl)pyridin-2-yl)pyrimidine-4,6-diamine] | 0.0291 µM | ~0.0158 µM | inhibition | inhibition | 200 mpk | 1.33 | ~1.3
C[C@@H](c1ccc(Nc2cc(Nc3ncc(F)cc3S(C)(=O)=O)ncn2)nc1)N1CC2(COC2)C1 [Compound 2, (S)—N^4-(5-(1-(2-oxa-6-azaspiro[3.3]heptan-6-yl)ethyl)pyridin-2-yl)-N^6-(5-fluoro-3-(methylsulfonyl)pyridin-2-yl)pyrimidine-4,6-diamine] | 0.0158 µM | ~0.029 µM | inhibition | inhibition |  |  | ~1.6
